Data taken from ChEMBL document CHEMBL2321853, “Novel acylethanolamide derivatives that modulate body weight through enhancement of hypothalamic pro-opiomelanocortin (POMC) and/or decreased neuropeptide Y (NPY)” (J Med Chem, 2013).
Activity calls are given as the source filed them. The rule behind the calls is not given here.

Assays:
Mus musculus [1] = experiment: Antiobesity activity in Sabra mouse assessed as change in food consumption at 1 mg/kg, ip administered on day 8, 9, 10, 11, 14, 18, 24 and 32 measured after 6 weeks relative to control; assay type: functional; settings: route intraperitoneal
Mus musculus [2] = experiment: Hepatotoxicity in Sabra mouse assessed as inflammatory changes at 1 mg/kg, ip administered on day 8, 9, 10, 11, 14, 18, 24 and 32 by hematoxylin and eosin staining-based histopathological analysis; assay type: toxicity, organism-based; design: dose 1 mg/kg, route intraperitoneal; settings: in vivo
Mus musculus [3] = experiment: Antiobesity activity in C57BL/6 mouse assessed as weight loss at 5 mg/kg, ip administered on day 1, 4, 5, 7, 17, 15, 19 measured on day 5 relative to control; assay type: functional; settings: route intraperitoneal
Mus musculus [4] = experiment: Increase in motor activity Sabra mouse at 1 mg/kg, ip administered on day 8, 9, 10, 11, 14, 18, 24 and 32 measured on day 14 by open field test; assay type: functional, organism-based; design: dose 1 mg/kg
Mus musculus [5] = experiment: Enhancement of cognitive function in Sabra mouse at 1 mg/kg, ip administered on day 8, 12 and 43 by eight-arm maze test; assay type: functional, organism-based; design: dose 1 mg/kg
Hypothalamus [6] = experiment: Effect on FAAH gene expression in Sabra mouse hypothalamus assessed as change in mRNA level at 1 mg/kg, ip administered on day 8, 9, 10, 11, 14, 18, 24 and 32 by RT-PCR analysis relative to GAPDH; assay type: functional; settings: route intraperitoneal
Mus musculus [7] = experiment: Antiobesity activity in C57BL/6 mouse assessed as weight loss at 5 mg/kg, ip administered on day 1, 4, 5, 7, 17, 15, 19 measured on day 8 relative to control; assay type: functional; settings: route intraperitoneal
Mus musculus [8] = experiment: Antiobesity activity in high fat diet fed C57BL/6 mouse assessed as reduction in body weight at 1 mg/kg, ip administered on day 3, 6, 8, 9, 10 measured on day 10 relative to control; assay type: functional; design: scale not given: the % may be the effect or the level left; settings: route intraperitoneal
Mus musculus [9] = experiment: Antiobesity activity in C57BL/6 mouse assessed as change in triglyceride level at 5 mg/kg, ip measured on day 36 (reference value: 0.92 mg/dL); assay type: functional; settings: route intraperitoneal
Mus musculus [10] = experiment: Antiobesity activity in C57BL/6 mouse assessed as change in glucose level in blood at 5 mg/kg, ip administered on day 1, 4, 5, 7, 17, 15, 19 measured on day 15 relative to control; assay type: functional; settings: route intraperitoneal
Mus musculus [11] = experiment: Hepatotoxicity in Sabra mouse assessed as ischemic changes at 1 mg/kg, ip administered on day 8, 9, 10, 11, 14, 18, 24 and 32 by hematoxylin and eosin staining-based histopathological analysis; assay type: toxicity, organism-based; design: dose 1 mg/kg, route intraperitoneal; settings: in vivo
Mus musculus [12] = experiment: Antiobesity activity in Sabra mouse assessed as change in food consumption at 1 mg/kg, ip administered on day 8, 9, 10, 11, 14, 18, 24 and 32 measured after 3 weeks relative to control; assay type: functional; settings: route intraperitoneal
Mus musculus [13] = experiment: Antiobesity activity in C57BL/6 mouse assessed as change in glucose level in blood at 5 mg/kg, ip administered on day 1, 4, 5, 7, 17, 15, 19 measured on day 9 relative to control; assay type: functional; settings: route intraperitoneal
Mus musculus [14] = experiment: Antiobesity activity in Sabra mouse assessed as change in body weight at 1 mg/kg, ip administered on day 8, 9, 10, 11, 14, 18, 24 and 32 measured on day 9 relative to control; assay type: functional; settings: route intraperitoneal
Hypothalamus [15] = experiment: Effect on POMC gene expression in ip dosed Sabra mouse hypothalamus assessed as increase in mRNA level administered on day 6 to 10 measured on day 16 by RT-PCR analysis relative to control; assay type: functional, organism-based
[16] = molecular target: T1, Fatty-acid amide hydrolase 1 (Rattus norvegicus) (UniProt P97612); experiment: Inhibition of rat brain FAAH using [3H]anandamide as substrate at 10 uM preincubated for 15 mins before substrate addition relative to control
T1 sequence (whole entry): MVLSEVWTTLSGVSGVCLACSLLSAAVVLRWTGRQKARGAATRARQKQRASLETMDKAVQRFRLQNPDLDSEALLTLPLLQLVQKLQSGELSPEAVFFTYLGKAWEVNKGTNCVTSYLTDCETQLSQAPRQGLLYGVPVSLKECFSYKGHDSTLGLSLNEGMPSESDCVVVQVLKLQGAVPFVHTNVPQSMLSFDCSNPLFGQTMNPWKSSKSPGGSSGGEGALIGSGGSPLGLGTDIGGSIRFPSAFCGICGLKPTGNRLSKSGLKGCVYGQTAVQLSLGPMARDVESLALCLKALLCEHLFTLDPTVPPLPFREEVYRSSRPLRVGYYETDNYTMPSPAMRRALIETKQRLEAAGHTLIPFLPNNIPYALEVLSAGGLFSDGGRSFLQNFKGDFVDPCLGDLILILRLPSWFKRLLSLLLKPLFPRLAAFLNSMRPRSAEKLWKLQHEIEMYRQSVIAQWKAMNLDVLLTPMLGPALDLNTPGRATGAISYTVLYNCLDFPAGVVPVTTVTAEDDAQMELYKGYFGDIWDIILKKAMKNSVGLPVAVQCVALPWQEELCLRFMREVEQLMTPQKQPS

Mus musculus [17] = experiment: Enhancement of cognitive function in Sabra mouse at 1 mg/kg, ip administered on day 6 to 10 by eight-arm maze test; assay type: functional, organism-based; design: dose 1 mg/kg
Hypothalamus [18] = experiment: Effect on POMC gene expression in Sabra mouse hypothalamus assessed as increase in mRNA level at 1 mg/kg, ip administered on day 6 to 10 measured on day 16 by RT-PCR analysis relative to control; assay type: functional; settings: route intraperitoneal
Mus musculus [19] = experiment: Antiobesity activity in Sabra mouse assessed as reduction in body weight at 1 mg/kg, ip administered on day 0, 10, 11, 12, 24, 29 measured on day 22 relative to control; assay type: functional; design: scale not given: the % may be the effect or the level left; settings: route intraperitoneal
Mus musculus [20] = experiment: Antiobesity activity in Sabra mouse assessed as change in food consumption at 1 mg/kg, ip administered on day 8, 9, 10, 11, 14, 18, 24 and 32 measured after 2 weeks relative to control; assay type: functional; settings: route intraperitoneal
Mus musculus [21] = experiment: Enhancement of motor activity in Sabra mouse at 1 mg/kg, ip administered on day 6 to 10 by open field test relative to control; assay type: functional; settings: route intraperitoneal
Mus musculus [22] = experiment: Antiobesity activity in Sabra mouse assessed as change in body weight at 1 mg/kg, ip administered on day 8, 12 and 43 measured on day 12 relative to control; assay type: functional; settings: route intraperitoneal
Mus musculus [23] = experiment: Antiobesity activity in Sabra mouse assessed as change in body weight at 1 mg/kg, ip administered on day 8, 12 and 43 measured on day 8 relative to control; assay type: functional; settings: route intraperitoneal
Mus musculus [24] = experiment: Antiobesity activity in Sabra mouse assessed as reduction in body weight at 1 mg/kg, ip administered on day 0, 10, 11, 12, 24, 29 measured on day 39 relative to control; assay type: functional; design: scale not given: the % may be the effect or the level left; settings: route intraperitoneal
Mus musculus [25] = experiment: Antiobesity activity in Sabra mouse assessed as change in body weight at 1 mg/kg, ip administered on day 8, 12 and 43 measured on day 5 relative to control; assay type: functional; settings: route intraperitoneal
Mus musculus [26] = experiment: Antiobesity activity in Sabra mouse assessed as change in food consumption at 1 mg/kg, ip administered on day 8, 9, 10, 11, 14, 18, 24 and 32 measured after 4 weeks relative to control; assay type: functional; settings: route intraperitoneal
Hypothalamus [27] = experiment: Effect on NPY gene expression in Sabra mouse hypothalamus assessed as change in mRNA level at 1 mg/kg, ip administered on day 8, 9, 10, 11, 14, 18, 24 and 32 by RT-PCR analysis relative to GAPDH; assay type: functional; settings: route intraperitoneal

CCCCCCCC/C=C\CCCCCCCC(=O)N[C@H](CO)C(C)C
Activity (Mus musculus [1]): 83.6%
Activity (Mus musculus [2]): Non-toxic
Activity (Mus musculus [3]): -3.2%
Activity (Mus musculus [4]): Active
Activity (Mus musculus [5]): Active
Activity (Hypothalamus [6]): -33%
Activity (Mus musculus [7]): -4.6%
Activity (Mus musculus [8]): -6.3%
Activity (Mus musculus [9]): 1.017 mg/dL
Activity (Mus musculus [10]): -16.3%
Activity (Mus musculus [11]): Non-toxic
Activity (Mus musculus [12]): 91.2%
Activity (Mus musculus [13]): -11.8%
Activity (Mus musculus [14]): -2.2%
Activity (Hypothalamus [15]): Dose-dependent effect
inhibition [16]: 14%
Activity (Mus musculus [17]): Active
Activity (Hypothalamus [18]): 50%
Activity (Mus musculus [19]): -3.06%
Activity (Mus musculus [20]): 93.8%
Activity (Mus musculus [21]): 20%
Activity (Mus musculus [22]): -2.2%
Activity (Mus musculus [23]): 0.7%
Activity (Mus musculus [24]): -7.31%
Activity (Mus musculus [25]): 1.8%
Activity (Mus musculus [26]): 90.3%
Activity (Hypothalamus [27]): -11%
